pIC50, pKi: −log10 of the molar value.

In experiment [1] the target is Cathepsin D (Homo sapiens, UniProt P07339). The experiment in a line: Inhibition of cathepsin D activity (substrate peptide hydrolysis, MALDI-TOF). It is filed as biochemical. The following applies: pH 4.1, 37 degrees C., read-out: Cath D Ki.
For experiment [2], the system named is Aβ production. The experiment in a line: Cellular Aβ IC50 determination (Aβ40 sandwich ELISA). The note with it: Cricetulus griseus, Chinese hamster ovary cells over-expressing human APP695 with London and Swedish mutations, 24 h. In kind it is cell-based. Summed up: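 CHO cells over-expressing human APP695 (London and Swedish mutations) were treated 48 h after seeding with serially diluted compound, top final concentration near 4 μM (0.4% DMSO), for 24 h at 37 °C, 5% CO2. Aβ40 in medium was measured by sandwich ELISA; values relative to control were fit to a 4-parameter IC50 model.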
For orientation: ELISA stands for enzyme-linked immunosorbent assay.

The target of experiment [3] is T1, memapsin 1 (Homo sapiens, UniProt Q9Y5Z0).
T1 sequence (Q9Y5Z0 63-518): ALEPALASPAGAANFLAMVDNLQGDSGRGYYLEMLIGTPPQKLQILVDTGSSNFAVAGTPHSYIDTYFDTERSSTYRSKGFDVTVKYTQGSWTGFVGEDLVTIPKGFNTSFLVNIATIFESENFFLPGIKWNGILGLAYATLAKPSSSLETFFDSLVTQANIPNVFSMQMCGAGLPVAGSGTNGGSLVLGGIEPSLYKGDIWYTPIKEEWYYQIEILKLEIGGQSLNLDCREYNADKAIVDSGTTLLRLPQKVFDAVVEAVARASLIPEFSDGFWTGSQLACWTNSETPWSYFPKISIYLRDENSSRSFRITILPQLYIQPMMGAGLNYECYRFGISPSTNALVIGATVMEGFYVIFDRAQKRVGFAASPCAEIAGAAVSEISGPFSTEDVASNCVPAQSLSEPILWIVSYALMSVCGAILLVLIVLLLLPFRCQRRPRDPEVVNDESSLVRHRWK
The experiment can be described thus: Inhibition of memapsin 1 beta-secretase activity (substrate peptide hydrolysis, MALDI-TOF). The following applies: pH 4.1, 37 degrees C., read-out: M1 Ki. It is filed as biochemical.

The target in experiment [4] is memapsin 2 (Homo sapiens, UniProt P56817). The experiment in a line: Inhibition of memapsin 2 beta-secretase activity toward fluorogenic substrate FS-2. It is filed as biochemical. The note with it: pH 4, 37° C., 20 minutes pre-incubation, read-out: M2 Ki. The method in brief:
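Enzyme pre-incubated with compound 20 min at pH 4, 37 °C, then fluorogenic substrate FS-2 added. Inhibition derived from rate of fluorescence increase from peptide hydrolysis.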

memapsin 2, sequence (P56817 46-501): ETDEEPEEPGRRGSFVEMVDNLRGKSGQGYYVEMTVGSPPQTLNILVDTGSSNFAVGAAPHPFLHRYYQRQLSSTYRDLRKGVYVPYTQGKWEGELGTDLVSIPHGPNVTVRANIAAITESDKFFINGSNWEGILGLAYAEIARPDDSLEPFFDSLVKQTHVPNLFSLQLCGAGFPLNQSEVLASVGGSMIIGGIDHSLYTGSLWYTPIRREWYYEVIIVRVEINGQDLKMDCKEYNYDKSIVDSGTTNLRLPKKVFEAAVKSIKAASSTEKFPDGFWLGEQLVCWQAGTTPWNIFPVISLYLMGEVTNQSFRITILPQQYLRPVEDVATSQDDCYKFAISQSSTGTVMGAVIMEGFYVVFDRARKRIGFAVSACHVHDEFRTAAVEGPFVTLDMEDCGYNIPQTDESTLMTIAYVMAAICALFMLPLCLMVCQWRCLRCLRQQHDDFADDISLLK
Cathepsin D, sequence (P07339 65-412, species assumed): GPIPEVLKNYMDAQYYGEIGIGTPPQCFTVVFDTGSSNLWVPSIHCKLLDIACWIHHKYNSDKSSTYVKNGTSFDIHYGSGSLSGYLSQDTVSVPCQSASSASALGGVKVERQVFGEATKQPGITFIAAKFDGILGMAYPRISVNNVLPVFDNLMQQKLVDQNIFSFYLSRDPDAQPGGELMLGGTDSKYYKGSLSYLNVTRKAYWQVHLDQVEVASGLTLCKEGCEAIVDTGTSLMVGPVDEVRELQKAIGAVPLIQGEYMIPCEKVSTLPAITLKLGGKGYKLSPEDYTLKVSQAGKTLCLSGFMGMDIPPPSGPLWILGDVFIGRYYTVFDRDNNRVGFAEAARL

For orientation: pKi means the negative decadic logarithm of the Ki, by convention in mol/L. As usually defined, the pIC50 is the negative decadic logarithm of the IC50, by convention in mol/L. A high value points to a small IC50. On to `CCCN(CCC)C(=O)c1cccc(C(=O)NC(Cc2ccc(OC)cc2)C(O)CC(C)C(=O)NC(C(=O)NCC(C)C)C(C)C)c1` (stereo not shown) [N1-(3-hydroxy-6-(1-(isobutylamino)-3-methyl-1-oxobutan-2-ylamino)-1-(4-methoxyphenyl)-5-methyl-6-oxohexan-2-yl)-N3,N3-dipropylisophthalamide], for which the pKi in experiment [1], in experiment [3] and in experiment [4] was over 6.39 throughout. The pIC50 in experiment [2] is 5.00 to 5.30.

Turning to `CC(C)CC(NC(=O)c1cc(C(=O)NC(C)c2ccccc2)cc(N(C)S(C)(=O)=O)c1)C(O)CC(C)C(=O)NC(C(=O)NCC1CCCN1C)C(C)C` (stereo not shown) [N1-(5-hydroxy-2,7-dimethyl-8-(3-methyl-1-((1-methylpyrrolidin-2-yl)methylamino)-1-oxobutan-2-ylamino)-8-oxooctan-4-yl)-5-(N-methylmethylsulfonamido)-N3-(1-phenylethyl)isophthalamide], the pKi in experiment [1] was 5.70 to 6.39; in experiment [3], 5.70 to 6.39; in experiment [4], over 6.39. For the same compound, the negative-log IC50 (pIC50) in experiment [2] is over 5.30.

Take `CC(C)CNC(=O)C(NC(=O)C(C)CC(O)C(CC(C)C)NC(=O)c1cccc(C(=O)N(C)Cc2ccco2)c1)C(C)C` (stereo not shown) [N1-(furan-2-ylmethyl)-N3-(5-hydroxy-8-(1-(isobutylamino)-3-methyl-1-oxobutan-2-ylamino)-2,7-dimethyl-8-oxooctan-4-yl)-N1-methylisophthalamide]: the pKi in experiment [1] is over 6.39; in experiment [3] it was 5.70 to 6.39; in experiment [4] it was over 6.39. In addition, the pIC50 in experiment [2] is under 4.70.

Consider `CC(C)CC(NC(=O)c1cc(C(=O)NC(C)c2ccccc2)cc(N(C)S(C)(=O)=O)c1)C(O)CC(C)C(=O)NC(C(=O)NCc1ccncc1)C(C)C` (stereo not shown) [N1-(5-hydroxy-2,7-dimethyl-8-(3-methyl-1-oxo-1-(pyridin-4-ylmethylamino)butan-2-ylamino)-8-oxooctan-4-yl)-5-(N-methylmethylsulfonamido)-N3-(1-phenylethyl)isophthalamide], for which the negative-log Ki (pKi) in experiment [1], in experiment [3] and in experiment [4] was over 6.39 each time. The compound further had a negative logarithm of the IC50 (pIC50) in experiment [2] of over 5.30.

`CC(C)CNC(=O)C(NC(=O)C(C)CC(O)C(CC(C)C)NC(=O)c1cc(C(=O)N(C)C(C)c2ccccc2)cc(N(C)S(C)(=O)=O)c1)C(C)C` (stereo not shown) [N1-(5-hydroxy-8-(1-(isobutylamino)-3-methyl-1-oxobutan-2-ylamino)-2,7-dimethyl-8-oxooctan-4-yl)-N3-methyl-5-(N-methylmethylsulfonamido)-N3-(1-phenylethyl)isophthalamide]: the results for the negative logarithm of the Ki (pKi) in experiment [1], in experiment [3] and in experiment [4] were over 6.39, over 6.39 and 5.70 to 6.39, respectively. In experiment [2], the pIC50 was under 4.70.

`CC(C)CC(NC(=O)c1cc(C(=O)NC(C)c2ccccc2)cc(N(C)S(C)(=O)=O)c1)C(O)CC(C)C(=O)NC(C(=O)NCc1cccnc1)C(C)C` (stereo not shown) [N1-(5-hydroxy-2,7-dimethyl-8-(3-methyl-1-oxo-1-(pyridin-3-ylmethylamino)butan-2-ylamino)-8-oxooctan-4-yl)-5-(N-methylmethylsulfonamido)-N3-(1-phenylethyl)isophthalamide]: the pKi in experiment [1] was 5.70 to 6.39; in experiment [3], over 6.39; in experiment [4], over 6.39. The compound further gave a negative-log IC50 (pIC50) in experiment [2] of over 5.30.

For `CC(C)CC(NC(=O)c1cc(C(=O)NC(C)c2ccccc2)cc(N(C)C(=O)OC2CCOC2)c1)C(O)CC(C)C(=O)NC(C(=O)NC(C)C)C(C)C` (stereo not shown) [tetrahydrofuran-3-yl 3-(5-hydroxy-8-(1-(isopropylamino)-3-methyl-1-oxobutan-2-ylamino)-2,7-dimethyl-8-oxooctan-4-ylcarbamoyl)-5-(1-phenylethylcarbamoyl)phenyl(methyl)carbamate], the pKi is over 6.39 in experiment [1], over 6.39 in experiment [3] and 5.70 to 6.39 in experiment [4]. The compound further showed a pIC50 in experiment [2] of under 4.70.

The values are drawn from patent US20080207527A1, “Bicyclic Compounds Which Inhibit Beta-Secretase Activity and Methods of Use Thereof” (CoMentis, Inc., priority 2004, published 2008).
